Results as given in patent publication US20090111778A1, “2-Keto-Oxazoles as Modulators of Fatty Acid Amide Hydrolase” (priority 2005, published 2009).
Where two headings read alike, the source gives them in different places. Values belong to the compound of their own block, whether it stands above or below them.

Key:
[1] = target: T1, human FAAH (Homo sapiens, UniProt O00519); experiment: Assay Method 1: FAAH assay, hydrolysis of 3H-anandamide by homogenate of SK-N-MC cells transfected with human FAAH; format: biochemical
T1 construct: expressed in transfected cells
T1 sequence (O00519 1-579): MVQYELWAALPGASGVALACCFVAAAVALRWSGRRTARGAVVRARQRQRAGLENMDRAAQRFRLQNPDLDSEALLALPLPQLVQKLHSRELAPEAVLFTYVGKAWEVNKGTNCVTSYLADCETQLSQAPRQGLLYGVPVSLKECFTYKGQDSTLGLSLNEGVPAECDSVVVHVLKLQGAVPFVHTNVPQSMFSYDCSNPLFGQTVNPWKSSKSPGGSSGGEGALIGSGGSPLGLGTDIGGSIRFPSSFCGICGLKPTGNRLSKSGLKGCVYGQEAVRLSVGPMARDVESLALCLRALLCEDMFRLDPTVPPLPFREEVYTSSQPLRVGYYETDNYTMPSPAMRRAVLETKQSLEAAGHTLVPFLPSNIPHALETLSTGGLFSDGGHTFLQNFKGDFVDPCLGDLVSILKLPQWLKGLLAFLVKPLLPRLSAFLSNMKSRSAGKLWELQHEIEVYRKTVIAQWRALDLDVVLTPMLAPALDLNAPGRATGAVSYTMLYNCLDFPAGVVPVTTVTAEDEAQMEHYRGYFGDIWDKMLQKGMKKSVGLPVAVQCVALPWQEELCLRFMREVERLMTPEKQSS
Procedure: A. Transfection of Cells with Human FAAH
(§1) A 10-cm tissue culture dish with a confluent monolayer of SK-N-MC cells was split 2 days (d) prior to transfection. Using sterile technique, the media was removed and the cells were detached from the dish by the addition of trypsin. One fifth of the cells were then placed onto a new 10-cm dish. Cells were grown in a 37° C. incubator with 5% CO2 in Minimal Essential Media Eagle with 10% Fetal Bovine Serum. After 2 d, cells were approximately 80% confluent. These cells were removed from the dish with trypsin and pelleted in a clinical centrifuge. The pellet was re-suspended in 400 μL complete media and transferred to an electroporation cuvette with a 0.4 cm gap between the electrodes. Supercoiled human FAAH cDNA (1 μg) was added to the cells and mixed. The voltage for the electroporation was set at 0.25 kV, and the capacitance was set at 960 μF. After electroporation, the cells were diluted into complete media (10 mL) and plated onto four 10-cm dishes. Because of the variability in the efficiency of electroporation, four different concentrations of cells were plated. The ratios used were 1:20, 1:10, and 1:5, with the remainder of the cells being added to the fourth dish. The cells were allowed to recover for 24 h before adding the selection media (complete media with 600 μg/mL G418). After 10 d, dishes were analyzed for surviving colonies of cells. Dishes with well-isolated colonies were used. Cells from individual colonies were isolated and tested.
The assay mixture consisted of […] of the cell homogenate, 10 μL of the test compound, and 40 μL of anandamide [1-^3H-ethanolamine] (3H-AEA, Perkin-Elmer, 10.3 Ci/mmol), which was added last, for a final tracer concentration of 80 nM. The reaction mixture was incubated at rt for 1 h. During the incubation, 96-well Multiscreen filter plates (catalog number MAFCNOB50; Millipore, Bedford, Mass., USA) were loaded with 25 μL of activated charcoal (Multiscreen column loader, catalog number MACL09625, Millipore) and washed once with 100 μL of MeOH. Also during the incubation, 96-well DYNEX MicroLite plates (catalog number NL510410) were loaded with 100 μL of MicroScint40 (catalog number 6013641, Packard Bioscience, Meriden, Conn., USA). After the 1 h incubation, 60 μL of the reaction mixture were transferred to the charcoal plates, which were then assembled on top of the DYNEX plates using Centrifuge Alignment Frames (catalog number MACF09604, Millipore). The unbound labeled ethanolamine was centrifuged through to the bottom plate (5 min at 2000 rpm), which was preloaded with the scintillant, as described above. The plates were sealed and left at rt for 1 h before counting on a Hewlett Packard TopCount.

[2] = target: T2, rat FAAH (Rattus norvegicus, UniProt P97612); experiment: Assay Method 2: FAAH assay, hydrolysis of 3H-anandamide by homogenate of SK-N-MC cells transfected with rat FAAH; format: biochemical; conditions: T84 or transfected SK-N-MC cell homogenate, 3H-AEA tracer 80 nM, rt 1 h, pH 9
T2 construct: expressed in transfected cells
T2 sequence (P97612 1-579): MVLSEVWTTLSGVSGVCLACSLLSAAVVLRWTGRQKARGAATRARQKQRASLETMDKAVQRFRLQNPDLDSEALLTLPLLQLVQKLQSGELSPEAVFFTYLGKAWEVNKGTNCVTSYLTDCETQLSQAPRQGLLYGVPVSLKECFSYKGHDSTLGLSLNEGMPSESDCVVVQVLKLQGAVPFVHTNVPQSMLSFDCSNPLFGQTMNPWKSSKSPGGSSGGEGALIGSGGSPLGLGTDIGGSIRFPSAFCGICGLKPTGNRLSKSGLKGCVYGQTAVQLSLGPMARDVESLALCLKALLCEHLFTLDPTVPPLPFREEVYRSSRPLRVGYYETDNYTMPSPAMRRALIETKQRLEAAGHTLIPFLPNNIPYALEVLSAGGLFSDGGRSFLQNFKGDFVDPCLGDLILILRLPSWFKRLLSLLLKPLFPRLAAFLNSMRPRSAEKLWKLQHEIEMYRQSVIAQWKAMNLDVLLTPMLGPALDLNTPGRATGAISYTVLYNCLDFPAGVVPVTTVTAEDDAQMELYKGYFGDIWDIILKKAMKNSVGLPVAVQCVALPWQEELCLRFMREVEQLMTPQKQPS
Procedure: as §1, with “A. Transfection of Cells with Rat FAAH A 10-cm” for “A 10-cm”, “electrodes. Supercoiled rat FAAH cDNA” for “electrodes. Supercoiled human FAAH cDNA”, “and tested. […] B. FAAH Assay […] The reaction mixture was incubated at rt for 1 h. During the incubation, 96-well Multiscreen filter plates (catalog number MAFCNOB50; Millipore, Bedford, Mass., USA) were loaded with 25 μL of activated charcoal (Multiscreen column loader, catalog number MACL09625, Millipore) and washed once with 100 μL of MeOH. Also during the incubation, 96-well DYNEX MicroLite plates (catalog number NL510410) were loaded with 100 μL of MicroScint40 (catalog number 6013641, Packard Bioscience, Meriden, Conn., USA). After the 1 h incubation, 60 μL of the reaction mixture were transferred to the charcoal plates, which were then assembled on top of the DYNEX plates using Centrifuge Alignment Frames (catalog number MACF09604, Millipore). The unbound labeled ethanolamine was centrifuged through to the bottom plate (5 min at 2000 rpm), which was preloaded with the scintillant, as described above. The plates were sealed and left at rt for 1 h before counting on a Hewlett Packard TopCount.” for “and tested.”

[3] = human FAAH, T84 or transfected SK-N-MC cell homogenate, 3H-AEA tracer 80 nM, rt 1 h, pH 9, read-out: Assay 1 IC50

IC50 [1, 3]: 834 nM
IC50 [2]: 463 nM
Compound: Cc1cccc(CC(=O)N2CCC(CCCC(=O)c3ncco3)CC2)c1 [Example 39, 1-Oxazol-2-yl-4-[1-(2-m-tolyl-acetyl)-piperidin-4-yl]-butan-1-one]

IC50 [1, 3]: 43 nM
IC50 [2]: 75 nM
Compound: O=C(CCCC1CCN(C(=O)Cc2ccc(Cl)cc2)CC1)c1ncco1 [Example 40, 4-{1-[2-(4-Chloro-phenyl)-acetyl]-piperidin-4-yl}1-oxazol-2-yl-butan-1-one]

IC50 [1, 3]: 640 nM
IC50 [2]: 712 nM
Compound: O=C(CCCC1CCN(C(=O)Cc2cccc(Cl)c2)CC1)c1ncco1 [Example 41, 4-{1-[2-(3-Chloro-phenyl)-acetyl]-piperidin-4-yl}-1-oxazol-2-yl-butan-1-one]

IC50 [1, 3]: 430 nM
IC50 [2]: 800 nM
Compound: O=C(CCCC1CCN(C(=O)Cc2ccccc2Cl)CC1)c1ncco1 [Example 42, 4-{1-[2-(2-Chloro-Phenyl)-acetyl]-piperidin-4-yl}-1-oxazol-2-yl-butan-1-one]

IC50 [1, 3]: 40 nM
IC50 [2]: 10 nM
Compound: Cc1ccc(CCC(=O)N2CCC(CCCC(=O)c3ncco3)CC2)cc1 [Example 44, 1-Oxazol-2-yl-4-[1-(3-p-tolyl-propionyl)-piperidin-4-yl]-butan-1-one]

IC50 [1, 3]: 109 nM
IC50 [2]: 130 nM
Compound: Cc1ccccc1CCC(=O)N1CCC(CCCC(=O)c2ncco2)CC1 [Example 45, 1-Oxazol-2-yl-4-[1-(3-o-tolyl-propionyl)-piperidin-4-yl]-butan-1-one]

Continued, compound first:

Compound: O=C(CCCC1CCN(C(=O)CCc2ccc(Cl)cc2)CC1)c1ncco1 [Example 46, 4-{1-[3-(4-Chloro-phenyl)-propionyl]-piperidin-4-yl}-1-oxazol-2-yl-butan-1-one]
IC50 [1, 3]: 12 nM
IC50 [2]: 3 nM

Compound: O=C(CCCC1CCN(C(=O)CCc2cccnc2)CC1)c1ncco1 [Example 47, 1-Oxazol-2-yl-4-[1-(3-pyridin-3-yl-propionyl)-piperidin-4-yl]-butan-1-one]
IC50 [1, 3]: 400 nM
IC50 [2]: 700 nM

Compound: O=C(CCCC1CCN(C(=O)CC2CCCC2)CC1)c1ncco1 [Example 48, 4-[1-(2-Cyclopentyl-acetyl)-piperidin-4-yl]-1-oxazol-2-yl-butan-1-one]
IC50 [1, 3]: 100 nM
IC50 [2]: 216 nM

Compound: O=C(CCCC1CCN(C(=O)CC2CCCCC2)CC1)c1ncco1 [Example 49, 4-[1-(2-Cyclohexyl-acetyl)-piperidin-4-yl]-1-oxazol-2-yl-butan-1-one]
IC50 [1, 3]: 100 nM
IC50 [2]: 350 nM

Compound: O=C(CCCC1CCN(C(=O)CCC2CCCCC2)CC1)c1ncco1 [Example 50, 4-[1-(3-Cyclohexyl-propionyl)-piperidin-4-yl]-1-oxazol-2-yl-butan-1-one]
IC50 [1, 3]: 2 nM
IC50 [2]: 10 nM

Compound: CC(C)CCC(=O)N1CCC(CCCC(=O)c2ncco2)CC1 [Example 51, 4-Methyl-1-[4-(4-oxazol-2-yl-4-oxo-butyl)-piperidin-1-yl]-pentan-1-one]
IC50 [1, 3]: 230 nM
IC50 [2]: 635 nM

Compound: Cc1ccc(S(=O)(=O)N2CCC(CCCC(=O)c3ncco3)CC2)cc1 [Example 52, 1-Oxazol-2-yl-4-[1-(toluene-4-sulfonyl)-piperidin-4-yl]-butan-1-one]
IC50 [1, 3]: 1040 nM
IC50 [2]: 13 nM

Compound: O=C(CCCC1CCN(S(=O)(=O)Cc2ccccc2)CC1)c1ncco1 [Example 53, 1-Oxazol-2-yl-4-(1-phenylmethanesulfonyl-piperidin-4-yl)-butan-1-one]
IC50 [1, 3]: 600 nM
IC50 [2]: 800 nM

Compound: O=C(CCCC1CCN(S(=O)(=O)CCc2ccccc2)CC1)c1ncco1 [Example 54, 1-Oxazol-2-yl-4-[1-(2-phenyl-ethanesulfonyl)-piperidin-4-yl]-butan-1-one]
IC50 [1, 3]: 6 nM
IC50 [2]: 125 nM

Compound: O=C(CCCC1CCN(S(=O)(=O)c2ccc(F)cc2)CC1)c1ncco1 [Example 55, 4-[1-(4-Fluoro-benzenesulfonyl)-piperidin-4-yl]-1-oxazol-2-yl-butan-1-one]
IC50 [1, 3]: 905 nM
IC50 [2]: 95 nM

Compound: CC(C)S(=O)(=O)N1CCC(CCCC(=O)c2ncco2)CC1 [Example 56, 1-Oxazol-2-yl-4-[1-(propane-2-sulfonyl)-piperidin-4-yl]-butan-1-one]
IC50 [1]: 142 nM
IC50 [2]: 3350 nM

Compound: CCCS(=O)(=O)N1CCC(CCCC(=O)c2ncco2)CC1 [Example 57, 1-Oxazol-2-yl-4-[1-(propane-1-sulfonyl)-piperidin-4-yl]-butan-1-one]
IC50 [1, 3]: 120 nM
IC50 [2]: 1600 nM

Compound: CCCCS(=O)(=O)N1CCC(CCCC(=O)c2ncco2)CC1 [Example 58, 4-[1-(Butane-1-sulfonyl)-piperidin-4-yl]-1-oxazol-2-yl-butan-1-one]
IC50 [1, 3]: 60 nM
IC50 [2]: 720 nM

Compound: O=C(CCCC1CCN(S(=O)(=O)c2ccccc2)CC1)c1ncco1 [Example 59, 4-(1-Benzenesulfonyl-piperidin-4-yl)-1-oxazol-2-yl-butan-1-one]
IC50 [1, 3]: 705 nM
IC50 [2]: 165 nM
